# Experimental data reported in patent US5594135A, “Tricyclic DNA gyrase inhibitors” (Hoffmann-La Roche Inc., priority 1994, dated 1997).
# Assays:
# [1] = target: T1, DNA gyrase (Escherichia coli, UniProt P0AES4+P0AES6); assay: Inhibition of DNA gyrase activity (DNA gyrase supercoiling assay, relaxed pUC18 plasmid as substrate); format: biochemical, E. coli H560
# T1 construct: supercoiling of relaxed pUC18
# Experimental: A. Inhibition of DNA gyrase activity
# The inhibition of DNA gyrase activity was measured using a DNA gyrase supercoiling assay according to R. Otter & N. Cozzarelli: Methods in Enzymology, Vol. 100, pp 171-180 (1983). DNA gyrase was isolated from E. coli H560, and relaxed pUC18 plasmid was used as substrate. The activities as regards inhibition of DNA gyrase activity, expressed as maximum non-effective concentration of the test compound (MNC in μg/ml) are compiled in the following Table 1: […]
# [2] = test system: E. coli B; assay: Antibacterial activity in vitro (agar dilution); format: cell-based; details: Escherichia coli, agar dilution (MuellerHinton agar), inoculum 10^4 CFU/spot, read-out: minimum inhibitory concentration (MIC)
# [3] = test system: P. aeruginosa 799/61; assay: Antibacterial activity in vitro (agar dilution); format: cell-based; details: Pseudomonas aeruginosa, agar dilution (MuellerHinton agar), inoculum 10^4 CFU/spot, read-out: minimum inhibitory concentration (MIC)
# [4] = test system: S. aureus 25923; assay: Antibacterial activity in vitro (agar dilution); format: cell-based; details: Staphylococcus aureus, agar dilution (MuellerHinton agar), inoculum 10^4 CFU/spot, read-out: minimum inhibitory concentration (MIC)
# [5] = test system: S. aureus Smith; assay: Antibacterial activity in vitro (agar dilution); format: cell-based; details: Staphylococcus aureus, agar dilution (MuellerHinton agar), inoculum 10^4 CFU/spot, read-out: minimum inhibitory concentration (MIC)
# [6] = test system: S. epidermidis 16-2; assay: Antibacterial activity in vitro (agar dilution); format: cell-based; details: Staphylococcus epidermidis, 162, agar dilution (MuellerHinton agar), inoculum 10^4 CFU/spot, read-out: minimum inhibitory concentration (MIC)
# [7] = test system: S. pyogenes 15; assay: Antibacterial activity in vitro (agar dilution); format: cell-based; details: Streptococcus pyogenes, agar dilution (MuellerHinton agar), inoculum 10^4 CFU/spot, read-out: minimum inhibitory concentration (MIC)
# [8] = test system: S. faecalis 6; assay: Antibacterial activity in vitro (agar dilution); format: cell-based; details: Enterococcus faecalis, agar dilution (MuellerHinton agar), inoculum 10^4 CFU/spot, read-out: minimum inhibitory concentration (MIC)
# T1 sequence (P0AES4 whole entry, one chain of several): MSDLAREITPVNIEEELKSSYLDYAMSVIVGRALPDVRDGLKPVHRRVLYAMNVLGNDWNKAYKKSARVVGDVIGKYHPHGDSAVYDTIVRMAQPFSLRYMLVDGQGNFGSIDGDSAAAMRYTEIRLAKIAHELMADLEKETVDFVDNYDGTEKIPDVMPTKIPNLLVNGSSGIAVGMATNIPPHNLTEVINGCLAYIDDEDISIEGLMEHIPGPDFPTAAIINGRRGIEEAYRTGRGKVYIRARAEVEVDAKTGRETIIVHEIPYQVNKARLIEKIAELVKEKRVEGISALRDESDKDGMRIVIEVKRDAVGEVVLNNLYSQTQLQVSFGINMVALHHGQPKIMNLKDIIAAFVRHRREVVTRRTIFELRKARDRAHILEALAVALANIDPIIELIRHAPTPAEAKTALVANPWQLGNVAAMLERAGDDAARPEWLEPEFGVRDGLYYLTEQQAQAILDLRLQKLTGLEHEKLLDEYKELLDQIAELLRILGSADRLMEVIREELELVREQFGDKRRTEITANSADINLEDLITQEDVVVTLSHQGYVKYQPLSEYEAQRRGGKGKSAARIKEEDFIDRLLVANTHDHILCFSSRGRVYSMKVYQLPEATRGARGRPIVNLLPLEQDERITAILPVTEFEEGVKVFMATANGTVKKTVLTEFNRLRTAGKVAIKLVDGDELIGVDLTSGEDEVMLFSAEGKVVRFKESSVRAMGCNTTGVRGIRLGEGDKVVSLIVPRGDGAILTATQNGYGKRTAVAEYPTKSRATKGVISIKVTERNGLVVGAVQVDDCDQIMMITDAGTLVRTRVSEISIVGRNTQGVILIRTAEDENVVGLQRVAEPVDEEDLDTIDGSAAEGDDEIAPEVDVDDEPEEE
smiles,measurement,setting,value
"COc1cc(O)c2c(c1C)C(=O)OCCCCC(=O)N[C@H](c1nc(C)no1)CSC2 [Example 33, (R)-16-hydroxy-14-methoxy-13-methyl-4-(3-methyl-1,2,4-oxadiazol-5-yl)-1,3,4,5,6,7,8,9,10,12-decahydro-11,2,5-benzoxathiaazacyclotetradecine-6,12-dione]",maximum non-effective concentration of the test compound (MNC),[1],0.01 µg/mL
same,MIC,[2],32 µg/mL
same,MIC,[3],4 µg/mL
same,MIC,[4],0.5 µg/mL
same,MIC,[5],0.25 µg/mL
same,MIC,[6],0.25 µg/mL
same,MIC,[7],1 µg/mL
same,MIC,[8],0.5 µg/mL
